Experiment: Safety (adverse events, NCI CTCAE v4.0), expansion phase
Settings: expansion QW 40 mg
From the text: Based on data collected during dose-escalation, the expansion phase evaluated the safety and efficacy of QD and QW sapanisertib in patients with RCC, endometrial or bladder cancer. Patients could continue receiving sapanisertib for ≤1 year (or beyond, if the investigator and sponsor agreed) in the absence of disease progression or unacceptable toxicity.
Patients who received ≥1 dose of sapanisertib were included in the safety population. The response-evaluable population included patients who received ≥1 dose of sapanisertib, had measurable disease at baseline, and had ≥1 postbaseline assessment. […] Adverse events (AEs) were assessed using the National Cancer Institute Common Terminology Criteria for Adverse Events, v4.0. Patients were provided with a home blood-glucose meter to monitor their fasting predose blood-glucose measurements to assess hyperglycaemia as an on-target AE and PD marker.

## CC(C)n1nc(-c2ccc3oc(N)nc3c2)c2c(N)ncnc21 [Sapanisertib]
  Abdominal pain, all-grade AE of any cause: 4 (15) n (%)
  Abdominal pain, grade ≥3 AE of any cause: 0 (0) n (%)
  Acute kidney injury, grade ≥3 AE of any cause: 2 (8) n (%)
  Acute kidney injury, treatment-related AE: 4 (15) n (%)
  Anaemia, all-grade AE of any cause: 11 (42) n (%)
  Anaemia, grade ≥3 AE of any cause: 3 (12) n (%)
  Anaemia, treatment-related AE: 8 (31) n (%)
  Any AE: 26 (100) n (%)
  Any AE resulting in dose modification/interruption: 20 (77) n (%)
  Any AE resulting in treatment discontinuation: 2 (8) n (%)
  Any SAE: 9 (35) n (%)
  Any grade ≥3 AE: 19 (73) n (%)
  Any treatment-related AE: 26 (100) n (%)
  Any treatment-related SAE: 4 (15) n (%)
  Any treatment-related grade ≥3 AE: 14 (54) n (%)
  Arthralgia, all-grade AE of any cause: 7 (27) n (%)
  Asthenia, grade ≥3 AE of any cause: 2 (8) n (%)
  Asthenia, treatment-related AE: 4 (15) n (%)
  Asthenia, treatment-related grade ≥3 AE: 1 (4) n (%)
  Blood creatinine increased, all-grade AE of any cause: 5 (19) n (%)
  Blood creatinine increased, treatment-related AE: 4 (15) n (%)
  Constipation, all-grade AE of any cause: 10 (38) n (%)
  Constipation, grade ≥3 AE of any cause: 1 (4) n (%)
  Cough, all-grade AE of any cause: 8 (31) n (%)
  Decreased appetite, all-grade AE of any cause: 14 (54) n (%)
  Decreased appetite, treatment-related AE: 14 (54) n (%)
  Dehydration, all-grade AE of any cause: 7 (27) n (%)
  Dehydration, grade ≥3 AE of any cause: 3 (12) n (%)
  Dehydration, treatment-related AE: 5 (19) n (%)
  Dehydration, treatment-related grade ≥3 AE: 2 (8) n (%)
  Depression, all-grade AE of any cause: 3 (12) n (%)
  Diarrhoea, all-grade AE of any cause: 13 (50) n (%)
  Diarrhoea, grade ≥3 AE of any cause: 1 (4) n (%)
  Diarrhoea, treatment-related AE: 13 (50) n (%)
  Diarrhoea, treatment-related grade ≥3 AE: 1 (4) n (%)
  Dizziness, all-grade AE of any cause: 3 (12) n (%)
  Dry mouth, all-grade AE of any cause: 7 (27) n (%)
  Dry mouth, treatment-related AE: 6 (23) n (%)
  Dysgeusia, all-grade AE of any cause: 3 (12) n (%)
  Dysgeusia, treatment-related AE: 3 (12) n (%)
  Dyspepsia, treatment-related AE: 2 (8) n (%)
  Dyspnoea, grade ≥3 AE of any cause: 0 (0) n (%)
  Fatigue, all-grade AE of any cause: 24 (92) n (%)
  Fatigue, grade ≥3 AE of any cause: 4 (15) n (%)
  Fatigue, treatment-related AE: 23 (88) n (%)
  Fatigue, treatment-related grade ≥3 AE: 4 (15) n (%)
  Haematuria, grade ≥3 AE of any cause: 0 (0) n (%)
  Headache, all-grade AE of any cause: 6 (23) n (%)
  Headache, treatment-related AE: 4 (15) n (%)
  Hypercholesterolemia, treatment-related AE: 0 (0) n (%)
  Hyperglycaemia, all-grade AE of any cause: 20 (77) n (%)
  Hyperglycaemia, grade ≥3 AE of any cause: 6 (23) n (%)
  Hyperglycaemia, treatment-related AE: 20 (77) n (%)
  Hyperglycaemia, treatment-related grade ≥3 AE: 6 (23) n (%)
  Hyperkalaemia, grade ≥3 AE of any cause: 0 (0) n (%)
  Hypertension, grade ≥3 AE of any cause: 1 (4) n (%)
  Hypokalaemia, grade ≥3 AE of any cause: 0 (0) n (%)
  Hyponatremia, grade ≥3 AE of any cause: 1 (4) n (%)
  Hypophosphatemia, grade ≥3 AE of any cause: 2 (8) n (%)
  Hypophosphatemia, treatment-related AE: 4 (15) n (%)
  Hypophosphatemia, treatment-related grade ≥3 AE: 2 (8) n (%)
  Lymphopenia, grade ≥3 AE of any cause: 1 (4) n (%)
  Lymphopenia, treatment-related grade ≥3 AE: 0 (0) n (%)
  Musculoskeletal chest pain, grade ≥3 AE of any cause: 1 (4) n (%)
  Nausea, all-grade AE of any cause: 20 (77) n (%)
  Nausea, grade ≥3 AE of any cause: 2 (8) n (%)
  Nausea, treatment-related AE: 20 (77) n (%)
  Nausea, treatment-related grade ≥3 AE: 2 (8) n (%)
  Oedema peripheral, all-grade AE of any cause: 5 (19) n (%)
  On-study deaths: 1 (4) n (%)
  Oropharyngeal pain, all-grade AE of any cause: 9 (35) n (%)
  Pain in extremity, grade ≥3 AE of any cause: 1 (4) n (%)
  Pneumonia, grade ≥3 AE of any cause: 0 (0) n (%)
  Pruritus generalised, all-grade AE of any cause: 3 (12) n (%)
  Pruritus generalised, treatment-related AE: 2 (8) n (%)
  Pruritus generalised, treatment-related grade ≥3 AE: 0 (0) n (%)
  Pruritus, all-grade AE of any cause: 4 (15) n (%)
  Pruritus, treatment-related AE: 3 (12) n (%)
  Pyrexia, all-grade AE of any cause: 5 (19) n (%)
  Rash maculo-papular, all-grade AE of any cause: 4 (15) n (%)
  Rash maculo-papular, grade ≥3 AE of any cause: 1 (4) n (%)
  Rash maculo-papular, treatment-related AE: 1 (4) n (%)
  Rash maculo-papular, treatment-related grade ≥3 AE: 0 (0) n (%)
  Rash, treatment-related AE: 1 (4) n (%)
  Rash, treatment-related grade ≥3 AE: 0 (0) n (%)
  Sepsis, grade ≥3 AE of any cause: 0 (0) n (%)
  Stomatitis (includes oropharyngeal pain and mucosal inflammation), treatment-related AE: 10 (38) n (%)
  Stomatitis, all-grade AE of any cause: 12 (46) n (%)
  Stomatitis, grade ≥3 AE of any cause: 1 (4) n (%)
  Stomatitis, treatment-related grade ≥3 AE: 1 (4) n (%)
  Thrombocytopenia, grade ≥3 AE of any cause: 1 (4) n (%)
  Thrombocytopenia, treatment-related grade ≥3 AE: 1 (4) n (%)
  Transitional cell carcinoma, grade ≥3 AE of any cause: 1 (4) n (%)
  Urinary tract infection, all-grade AE of any cause: 8 (31) n (%)
  Vomiting, all-grade AE of any cause: 20 (77) n (%)
  Vomiting, grade ≥3 AE of any cause: 1 (4) n (%)
  Vomiting, treatment-related AE: 19 (73) n (%)
  Weight decreased, all-grade AE of any cause: 7 (27) n (%)
  Weight decreased, treatment-related AE: 4 (15) n (%)

Reference: PMC7686313, “Phase 1 study of mTORC1/2 inhibitor sapanisertib (TAK-228) in advanced solid tumours, with an expansion phase in renal, endometrial or bladder cancer” (British Journal of Cancer, 2020)
